# Experiment: recombinant UMI read abundance after kanamycin selection (control-corrected) (log10(CPM+1)); higher = more efficient recombination; extreme values may be limits of the assay; sequences stand for … in AGTGCAGAGAAAATCGGCCAGTTTTCTCTGCCTGCAGTCCGCATGCCGTGGGACCCCTTGGGTTCTAACCTGTTGCCTAGATTTATGCAGCGGACTGCCTTTCTCCCAAAGTGATAAACCGG…AGGTTGGTTTCACT; site = the 11-nt donor
# Summary of the method: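 Sequenced counts of recombinant UMIs were turned into CPM, averaged across replicates and scaled with control-derived factors. The reported figure is log10(CPM+1). Those UMIs, each 12 nt long, tagged donor and donor-binding-loop pairs on a plasmid with a promoterless kanamycin gene, screened as a pool in Escherichia coli with IPTG (0.07 mM) plus kanamycin or without selection.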
# 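Also: IS621 bridge recombinase in Escherichia coli cells against a fixed T5 target plasmid.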
row,Sequence,recombinant UMI read abundance (log10)
1,CGTACATCATGGACCGGTTTTCCCGGTAATCCGTATTTGCT (site CGGACATCTAG),0
2,CGTACATCATGGACCGGTTTTCCCGGTAATCCGTATTTGCT (site CGTACATCTAG),1.39
3,CGTACCACATGGACCGGTTTTCCCGGTAATCCGTATTTGAG (site CGTACCACTCT),1.06
4,CGTAGAACATGGACCGGTTTTCCCGGTAATCCGTATTTGCC (site CGTAGAACTGG),2.75
5,CGTATGGCATGGACCGGTTTTCCCGGTAATCCGTATTTGCT (site CGTATGGCTAG),0.895
6,CGTATGGCATGGACCGGTTTTCCCGGTAATCCGTATTTGCT (site CGTCTGGCTAG),0
7,CGTATGGCATGGACCGGTTTTCCCGGTAATCCGTATTTGCT (site CGTGTGGCTAG),0.0109
8,CGTATGGCATGGACCGGTTTTCCCGGTAATCCGTATTTGCT (site CGTTTGGCTAG),0
9,CGTCTATCATGGACCGGTTTTCCCGGTAATCCGTATTTGCC (site CGTCTATCTGG),2.64
10,CGTCTGACATGGACCGGTTTTCCCGGTAATCCGTATTTGAC (site CGTCTGACTGT),0.908
11,CGTCTGGCATGGACCGGTTTTCCCGGTAATCCGTATTTGCT (site CGTATGGCTAG),0
12,CGTCTGGCATGGACCGGTTTTCCCGGTAATCCGTATTTGCT (site CGTCTGGCTAG),0.46
13,CGTCTGGCATGGACCGGTTTTCCCGGTAATCCGTATTTGCT (site CGTGTGGCTAG),0.00552
14,CGTCTGGCATGGACCGGTTTTCCCGGTAATCCGTATTTGCT (site CGTTTGGCTAG),0
15,CGTCTTCCATGGACCGGTTTTCCCGGTAATCCGTATTTGTC (site CGTCTTCCTGA),1.19
16,CGTGAGACATGGACCGGTTTTCCCGGTAATCCGTATTTGAG (site CGTAAGACTCT),2.08
17,CGTGAGACATGGACCGGTTTTCCCGGTAATCCGTATTTGAG (site CGTCAGACTCT),0.00623
18,CGTGAGACATGGACCGGTTTTCCCGGTAATCCGTATTTGAG (site CGTGAGACTCT),2.08
19,CGTGAGACATGGACCGGTTTTCCCGGTAATCCGTATTTGAG (site CGTTAGACTCT),0.167
20,CGTGCCTCATGGACCGGTTTTCCCGGTAATCCGTATTTGTC (site CGTGCCTCTGA),2.03
21,CGTGGAACATGGACCGGTTTTCCCGGTAATCCGTATTTGTC (site CGTGGAACTAA),0
22,CGTGGAACATGGACCGGTTTTCCCGGTAATCCGTATTTGTC (site CGTGGAACTCA),0.0117
23,CGTGGAACATGGACCGGTTTTCCCGGTAATCCGTATTTGTC (site CGTGGAACTGA),1.94
24,CGTGGAACATGGACCGGTTTTCCCGGTAATCCGTATTTGTC (site CGTGGAACTTA),0.519
25,CGTGGACCATGGACCGGTTTTCCCGGTAATCCGTATTTGTT (site CGTGGAACTAA),0.00973

row,Sequence,recombinant UMI read abundance (log10)
1,CGTGGACCATGGACCGGTTTTCCCGGTAATCCGTATTTGTT (site CGTGGACCTAA),0.0211
2,CGTGGACCATGGACCGGTTTTCCCGGTAATCCGTATTTGTT (site CGTGGAGCTAA),0.0186
3,CGTGGACCATGGACCGGTTTTCCCGGTAATCCGTATTTGTT (site CGTGGATCTAA),0.722
4,CGTGTATCATGGACCGGTTTTCCCGGTAATCCGTATTTGAC (site CGTGTATCTGT),1.26
5,CGTGTATCATGGACCGGTTTTCCCGGTAATCCGTATTTGAC (site CTAGTATCTGT),0
6,CGTTAAGCATGGACCGGTTTTCCCGGTAATCCGTATTTGAA (site CGTTAAGCTTT),2
7,CGTTACACATGGACCGGTTTTCCCGGTAATCCGTATTTGAG (site CGTTAAACTCT),0.00268
8,CGTTACACATGGACCGGTTTTCCCGGTAATCCGTATTTGAG (site CGTTACACTCT),1.43
9,CGTTACACATGGACCGGTTTTCCCGGTAATCCGTATTTGAG (site CGTTAGACTCT),0.0129
10,CGTTACACATGGACCGGTTTTCCCGGTAATCCGTATTTGAG (site CGTTATACTCT),0.202
11,CGTTAGACATGGACCGGTTTTCCCGGTAATCCGTATTTGAC (site CGTTAGACTAT),0.0518
12,CGTTAGACATGGACCGGTTTTCCCGGTAATCCGTATTTGAC (site CGTTAGACTCT),0.0193
13,CGTTAGACATGGACCGGTTTTCCCGGTAATCCGTATTTGAC (site CGTTAGACTGT),1.58
14,CGTTAGACATGGACCGGTTTTCCCGGTAATCCGTATTTGAC (site CGTTAGACTTT),0.0068
15,CGTTAGACATGGACCGGTTTTCCCGGTAATCCGTATTTGAG (site AGTTAGACTCT),0.0858
16,CGTTAGACATGGACCGGTTTTCCCGGTAATCCGTATTTGAG (site CATTAGACTCT),0.498
17,CGTTAGACATGGACCGGTTTTCCCGGTAATCCGTATTTGAG (site CCTTAGACTCT),0.0362
18,CGTTAGACATGGACCGGTTTTCCCGGTAATCCGTATTTGAG (site CGATAGACTCT),0.838
19,CGTTAGACATGGACCGGTTTTCCCGGTAATCCGTATTTGAG (site CGCTAGACTCT),0.501
20,CGTTAGACATGGACCGGTTTTCCCGGTAATCCGTATTTGAG (site CGGTAGACTCT),0.157
21,CGTTAGACATGGACCGGTTTTCCCGGTAATCCGTATTTGAG (site CGTAAGACTCT),0
22,CGTTAGACATGGACCGGTTTTCCCGGTAATCCGTATTTGAG (site CGTCAGACTCT),0.944
23,CGTTAGACATGGACCGGTTTTCCCGGTAATCCGTATTTGAG (site CGTGAGACTCT),0.0124
24,CGTTAGACATGGACCGGTTTTCCCGGTAATCCGTATTTGAG (site CGTTAAACTCT),0.893
25,CGTTAGACATGGACCGGTTTTCCCGGTAATCCGTATTTGAG (site CGTTACACTCT),0.00825

row,Sequence,recombinant UMI read abundance (log10)
1,CGTTAGACATGGACCGGTTTTCCCGGTAATCCGTATTTGAG (site CGTTAGACTAT),1.08
2,CGTTAGACATGGACCGGTTTTCCCGGTAATCCGTATTTGAG (site CGTTAGACTCA),0.0196
3,CGTTAGACATGGACCGGTTTTCCCGGTAATCCGTATTTGAG (site CGTTAGACTCC),0.374
4,CGTTAGACATGGACCGGTTTTCCCGGTAATCCGTATTTGAG (site CGTTAGACTCG),0
5,CGTTAGACATGGACCGGTTTTCCCGGTAATCCGTATTTGAG (site CGTTAGACTCT),1.55
6,CGTTAGACATGGACCGGTTTTCCCGGTAATCCGTATTTGAG (site CGTTAGACTGT),0.00425
7,CGTTAGACATGGACCGGTTTTCCCGGTAATCCGTATTTGAG (site CGTTAGACTTT),0.315
8,CGTTAGACATGGACCGGTTTTCCCGGTAATCCGTATTTGAG (site CGTTAGCCTCT),0.021
9,CGTTAGACATGGACCGGTTTTCCCGGTAATCCGTATTTGAG (site CGTTAGGCTCT),0.214
10,CGTTAGACATGGACCGGTTTTCCCGGTAATCCGTATTTGAG (site CGTTAGTCTCT),0.506
11,CGTTAGACATGGACCGGTTTTCCCGGTAATCCGTATTTGAG (site CGTTATACTCT),0.0136
12,CGTTAGACATGGACCGGTTTTCCCGGTAATCCGTATTTGAG (site CGTTCGACTCT),0.00605
13,CGTTAGACATGGACCGGTTTTCCCGGTAATCCGTATTTGAG (site CGTTGGACTCT),0.013
14,CGTTAGACATGGACCGGTTTTCCCGGTAATCCGTATTTGAG (site CGTTTGACTCT),0.0164
15,CGTTAGACATGGACCGGTTTTCCCGGTAATCCGTATTTGAG (site CTTTAGACTCT),0.00778
16,CGTTAGACATGGACCGGTTTTCCCGGTAATCCGTATTTGAG (site GGTTAGACTCT),0.0132
17,CGTTAGACATGGACCGGTTTTCCCGGTAATCCGTATTTGAG (site TGTTAGACTCT),0.0126
18,CGTTAGACATGGACCGGTTTTCCCGGTAATCCGTATTTGGG (site CGTTAGACTCA),0
19,CGTTAGACATGGACCGGTTTTCCCGGTAATCCGTATTTGGG (site CGTTAGACTCC),0.0132
20,CGTTAGACATGGACCGGTTTTCCCGGTAATCCGTATTTGGG (site CGTTAGACTCG),0.0116
21,CGTTAGACATGGACCGGTTTTCCCGGTAATCCGTATTTGGG (site CGTTAGACTCT),0.512
22,CGTTAGACATGGACCGGTTTTCCCGGTAATCCGTATTTGTG (site CGTTAGACTCA),1.14
23,CGTTAGACATGGACCGGTTTTCCCGGTAATCCGTATTTGTG (site CGTTAGACTCC),0.0241
24,CGTTAGACATGGACCGGTTTTCCCGGTAATCCGTATTTGTG (site CGTTAGACTCG),0.198
25,CGTTAGACATGGACCGGTTTTCCCGGTAATCCGTATTTGTG (site CGTTAGACTCT),0.0332
